# Data published in ChEMBL document CHEMBL5465560, “Selectivity Literature for EUbOPEN Chemogenomic Library” (2024).
# Legend:
# [1] = biological target: T1, Serine/threonine-protein kinase greatwall (Homo sapiens) (UniProt Q96GX5); assay: Selectivity interaction (Kinase panel (KiNativ target engagement assay in Jurkat cells)) EUB0001635a MASTL; type: cell-based; conditions: at 1 µM
# T1 sequence (whole entry): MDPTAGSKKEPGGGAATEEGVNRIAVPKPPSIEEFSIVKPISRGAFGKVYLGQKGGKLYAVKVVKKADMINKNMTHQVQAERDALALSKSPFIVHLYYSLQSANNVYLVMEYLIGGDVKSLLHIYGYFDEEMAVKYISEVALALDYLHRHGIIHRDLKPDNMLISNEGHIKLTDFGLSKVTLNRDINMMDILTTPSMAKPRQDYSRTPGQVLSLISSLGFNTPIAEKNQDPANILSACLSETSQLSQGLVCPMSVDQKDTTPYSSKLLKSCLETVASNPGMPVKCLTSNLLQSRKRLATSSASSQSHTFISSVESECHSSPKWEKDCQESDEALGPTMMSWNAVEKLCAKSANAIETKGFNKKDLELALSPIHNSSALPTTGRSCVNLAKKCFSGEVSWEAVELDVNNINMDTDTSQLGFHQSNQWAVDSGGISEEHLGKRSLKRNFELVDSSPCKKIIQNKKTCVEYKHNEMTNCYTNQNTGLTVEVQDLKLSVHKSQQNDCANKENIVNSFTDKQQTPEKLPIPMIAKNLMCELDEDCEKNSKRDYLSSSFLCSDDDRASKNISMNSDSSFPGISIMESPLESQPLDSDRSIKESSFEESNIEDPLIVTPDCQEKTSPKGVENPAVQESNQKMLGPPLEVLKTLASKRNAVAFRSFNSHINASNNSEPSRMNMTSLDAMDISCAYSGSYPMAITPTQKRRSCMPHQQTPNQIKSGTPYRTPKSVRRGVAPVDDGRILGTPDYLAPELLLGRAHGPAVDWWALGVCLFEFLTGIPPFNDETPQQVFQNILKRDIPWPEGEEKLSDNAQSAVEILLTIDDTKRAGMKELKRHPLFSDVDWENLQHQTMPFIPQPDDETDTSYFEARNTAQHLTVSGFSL
# [2] = biological target: Ribosomal protein S6 kinase alpha-3 (Homo sapiens, UniProt P51812); assay: Selectivity interaction (ActivX KiNativ screen (ex vivo kinase selectivity in human PBMCs)) EUB0001619a RPS6KA3; type: cell-based; conditions: PBMC, at 1 µM
# [3] = biological target: T2, Tyrosine-protein kinase Tec (Homo sapiens) (UniProt P42680); assay: Selectivity interaction (KinomeScan (DiscoverX)) EUB0000618a TEC; conditions: at 10 µM
# T2 sequence (whole entry): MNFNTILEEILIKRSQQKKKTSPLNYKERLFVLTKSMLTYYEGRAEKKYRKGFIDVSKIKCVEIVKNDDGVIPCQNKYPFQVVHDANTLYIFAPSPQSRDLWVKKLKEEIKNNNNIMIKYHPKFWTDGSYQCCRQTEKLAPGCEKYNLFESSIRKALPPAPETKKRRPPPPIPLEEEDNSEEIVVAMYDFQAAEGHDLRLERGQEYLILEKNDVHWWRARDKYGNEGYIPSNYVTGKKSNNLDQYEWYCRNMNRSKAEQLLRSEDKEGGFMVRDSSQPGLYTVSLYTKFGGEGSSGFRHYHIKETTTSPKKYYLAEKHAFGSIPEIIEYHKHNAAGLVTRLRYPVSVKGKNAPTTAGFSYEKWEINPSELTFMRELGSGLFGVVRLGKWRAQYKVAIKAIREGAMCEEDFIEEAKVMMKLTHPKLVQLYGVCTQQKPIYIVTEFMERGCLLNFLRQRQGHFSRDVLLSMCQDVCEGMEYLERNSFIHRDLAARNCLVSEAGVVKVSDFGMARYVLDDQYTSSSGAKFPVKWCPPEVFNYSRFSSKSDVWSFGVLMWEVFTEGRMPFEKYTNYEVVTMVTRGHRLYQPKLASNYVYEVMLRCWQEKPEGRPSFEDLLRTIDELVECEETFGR
# [4] = biological target: Tyrosine-protein kinase CSK (Homo sapiens) (UniProt P41240); assay: Selectivity interaction (ActivX KiNativ screen (kinase selectivity in THP-1 cell lysates)) EUB0000639a CSK; type: subcellular; conditions: lysate, at 0.2 µM
# [5] = biological target: Homeodomain-interacting protein kinase 2 (Homo sapiens, UniProt Q9H2X6); assay: Selectivity interaction (KinomeScan (DiscoverX)) EUB0000655a HIPK2; conditions: at 10 µM
# [6] = biological target: T3, Phosphatidylinositol 4,5-bisphosphate 3-kinase catalytic subunit delta isoform (Homo sapiens) (UniProt O00329); assay: Selectivity interaction (Ambit KINOMEscan and KiNATiv profiling in Jurkat cells) EUB0000090b PIK3CD; type: cell-based; conditions: at 1 µM
# T3 sequence (whole entry): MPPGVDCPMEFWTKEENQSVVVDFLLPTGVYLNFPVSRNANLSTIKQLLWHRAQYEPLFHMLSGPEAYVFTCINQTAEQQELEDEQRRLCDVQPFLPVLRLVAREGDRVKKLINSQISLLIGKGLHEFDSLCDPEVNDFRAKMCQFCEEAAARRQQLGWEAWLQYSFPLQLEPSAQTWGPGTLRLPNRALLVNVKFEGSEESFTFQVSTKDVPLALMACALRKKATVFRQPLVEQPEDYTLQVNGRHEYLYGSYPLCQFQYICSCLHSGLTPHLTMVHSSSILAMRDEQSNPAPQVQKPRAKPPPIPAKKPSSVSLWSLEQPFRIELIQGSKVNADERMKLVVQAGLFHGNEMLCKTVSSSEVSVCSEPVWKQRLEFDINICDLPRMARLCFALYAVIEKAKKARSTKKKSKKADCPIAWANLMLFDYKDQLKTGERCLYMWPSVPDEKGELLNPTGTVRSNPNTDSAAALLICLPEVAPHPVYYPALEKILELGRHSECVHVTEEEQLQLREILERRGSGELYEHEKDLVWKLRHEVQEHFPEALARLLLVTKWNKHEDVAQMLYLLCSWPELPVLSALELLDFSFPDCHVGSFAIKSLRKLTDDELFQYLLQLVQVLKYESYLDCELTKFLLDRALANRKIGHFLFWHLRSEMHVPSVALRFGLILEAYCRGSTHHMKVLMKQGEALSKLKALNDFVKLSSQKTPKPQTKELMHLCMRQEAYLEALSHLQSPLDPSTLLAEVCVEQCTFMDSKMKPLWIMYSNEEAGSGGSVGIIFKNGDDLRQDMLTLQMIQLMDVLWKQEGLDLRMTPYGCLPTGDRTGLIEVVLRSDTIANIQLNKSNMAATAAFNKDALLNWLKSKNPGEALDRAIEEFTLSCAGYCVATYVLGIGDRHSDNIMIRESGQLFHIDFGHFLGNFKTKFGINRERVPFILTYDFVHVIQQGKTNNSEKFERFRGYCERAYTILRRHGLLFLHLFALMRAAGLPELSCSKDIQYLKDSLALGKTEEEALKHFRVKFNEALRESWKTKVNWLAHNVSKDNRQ
# Sequence of Homeodomain-interacting protein kinase 2 (Q9H2X6 whole entry, looked up, canonical isoform): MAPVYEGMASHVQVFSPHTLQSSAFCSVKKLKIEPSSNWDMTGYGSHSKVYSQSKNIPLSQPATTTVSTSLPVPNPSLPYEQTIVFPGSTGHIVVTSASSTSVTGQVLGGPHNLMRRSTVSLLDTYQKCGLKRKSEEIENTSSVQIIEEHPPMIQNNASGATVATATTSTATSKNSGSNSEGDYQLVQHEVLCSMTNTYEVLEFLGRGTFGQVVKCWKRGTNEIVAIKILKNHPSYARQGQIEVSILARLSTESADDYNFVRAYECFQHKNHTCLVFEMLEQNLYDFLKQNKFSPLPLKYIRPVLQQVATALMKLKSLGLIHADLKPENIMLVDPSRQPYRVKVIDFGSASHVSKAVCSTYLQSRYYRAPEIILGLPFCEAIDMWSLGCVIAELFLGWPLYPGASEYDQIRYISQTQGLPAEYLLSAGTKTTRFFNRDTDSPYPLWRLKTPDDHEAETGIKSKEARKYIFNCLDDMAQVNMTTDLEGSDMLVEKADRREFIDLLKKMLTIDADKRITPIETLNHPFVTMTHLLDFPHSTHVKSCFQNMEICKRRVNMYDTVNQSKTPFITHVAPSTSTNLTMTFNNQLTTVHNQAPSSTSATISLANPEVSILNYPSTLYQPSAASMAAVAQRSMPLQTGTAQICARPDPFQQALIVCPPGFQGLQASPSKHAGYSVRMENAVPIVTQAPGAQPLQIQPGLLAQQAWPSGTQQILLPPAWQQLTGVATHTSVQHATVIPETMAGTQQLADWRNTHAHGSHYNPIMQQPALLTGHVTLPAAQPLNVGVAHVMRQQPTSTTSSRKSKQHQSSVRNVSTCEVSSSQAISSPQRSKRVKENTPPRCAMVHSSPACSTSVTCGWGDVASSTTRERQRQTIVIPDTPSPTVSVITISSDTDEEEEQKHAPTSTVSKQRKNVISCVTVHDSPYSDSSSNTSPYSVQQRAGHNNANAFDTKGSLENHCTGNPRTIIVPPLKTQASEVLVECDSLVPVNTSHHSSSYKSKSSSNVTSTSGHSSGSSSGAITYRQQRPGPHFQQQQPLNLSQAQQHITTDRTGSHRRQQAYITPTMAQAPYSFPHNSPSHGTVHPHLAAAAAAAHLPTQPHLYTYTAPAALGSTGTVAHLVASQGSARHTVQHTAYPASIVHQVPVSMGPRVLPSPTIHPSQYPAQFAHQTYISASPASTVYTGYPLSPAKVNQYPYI
# Sequence of Tyrosine-protein kinase CSK (Homo sapiens) (P41240 2-450 limits assumed): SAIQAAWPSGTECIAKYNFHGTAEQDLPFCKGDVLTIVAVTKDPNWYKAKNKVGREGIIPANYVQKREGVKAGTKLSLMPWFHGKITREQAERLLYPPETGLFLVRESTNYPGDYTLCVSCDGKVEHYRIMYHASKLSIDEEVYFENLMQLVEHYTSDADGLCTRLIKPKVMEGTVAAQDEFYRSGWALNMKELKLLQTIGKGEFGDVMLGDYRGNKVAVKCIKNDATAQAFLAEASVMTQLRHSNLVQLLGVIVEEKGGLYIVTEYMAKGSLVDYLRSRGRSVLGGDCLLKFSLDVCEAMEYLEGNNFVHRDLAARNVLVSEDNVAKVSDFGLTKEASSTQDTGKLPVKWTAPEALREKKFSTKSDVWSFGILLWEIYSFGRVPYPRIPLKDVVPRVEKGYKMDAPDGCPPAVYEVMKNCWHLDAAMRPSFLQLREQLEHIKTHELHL
# Sequence of Ribosomal protein S6 kinase alpha-3 (P51812 whole entry): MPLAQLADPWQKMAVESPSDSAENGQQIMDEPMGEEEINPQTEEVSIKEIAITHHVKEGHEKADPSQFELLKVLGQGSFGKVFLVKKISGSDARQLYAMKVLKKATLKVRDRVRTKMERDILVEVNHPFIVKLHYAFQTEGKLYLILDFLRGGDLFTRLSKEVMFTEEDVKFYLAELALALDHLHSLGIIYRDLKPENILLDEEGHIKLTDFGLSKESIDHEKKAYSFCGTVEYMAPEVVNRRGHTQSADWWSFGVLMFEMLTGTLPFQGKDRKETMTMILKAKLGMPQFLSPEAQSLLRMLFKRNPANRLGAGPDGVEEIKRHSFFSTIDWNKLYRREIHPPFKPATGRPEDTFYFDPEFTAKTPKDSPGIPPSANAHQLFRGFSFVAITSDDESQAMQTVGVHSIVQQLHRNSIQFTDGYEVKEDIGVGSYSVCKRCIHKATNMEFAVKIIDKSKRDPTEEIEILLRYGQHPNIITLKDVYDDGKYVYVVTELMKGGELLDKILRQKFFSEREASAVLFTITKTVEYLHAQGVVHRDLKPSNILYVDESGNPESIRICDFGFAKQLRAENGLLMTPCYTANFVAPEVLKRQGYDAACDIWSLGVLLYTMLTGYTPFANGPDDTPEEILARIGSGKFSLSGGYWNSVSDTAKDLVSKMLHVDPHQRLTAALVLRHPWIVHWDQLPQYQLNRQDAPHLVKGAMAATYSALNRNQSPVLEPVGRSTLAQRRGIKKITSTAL
compound,measurement,setting,value
C=CC(=O)Nc1ccc(C(=O)Nc2[nH]nc3c2CN(C(=O)N[C@H](CN(C)C)c2ccccc2)C3(C)C)cc1,% of engagement,[1],6.7%
N#Cc1cccc(-c2c[nH]c3ncnc(N4CCOCC4)c23)c1,% of inhibition,[2],10%
O[C@H]1CC[C@H](Nc2ncc3nc(Nc4c(F)cc(F)cc4F)n([C@H]4CCOC4)c3n2)CC1,% of control,[3],100%
CC[C@@H]1[C@H](F)C(=O)N[C@@H]1COc1nccc2cc(C(N)=O)c(OC)cc12 [ZIMLOVISERTIB],% of inhibition,[4],-6.8%
CN(C)CCOc1ccc(-c2nc(-c3ccncc3)c(-c3ccc4c(c3)CC/C4=N\O)[nH]2)cc1,% of control,[5],19%
CN(C)C/C=C/C(=O)Nc1ccc(C(=O)N2CCCC(Nc3ncc(Cl)c(-c4c[nH]c5ccccc45)n3)C2)cc1 (stereo unspecified),% of control,[6],100%
